Structures are written as SMILES.

Assay [1] relates to angiotensin II-induced contraction of the isolated rabbit aorta. Put plainly: Inhibition of angiotensin II-induced vascular contraction on isolated aortic rings of the rabbit in vitro. Type of assay: cell-based. Conditions: Oryctolagus cuniculus, agonist angiotensin II, effect at 3rd = submaximal agonist concentration, read-out: IC50 against contractions induced by: AII. The method, then: Rabbits of both sexes are stunned by a blow to the neck and exsanguinated, or in some cases anaesthetised with Nembutal (about 60-80 mg/kg i.v.) and sacrificed by opening the thorax. The thoracic aorta is removed, freed from attached connective tissue and divided into ring segments 1.5 mm wide, and the segments are introduced individually, under an initial load of about 3.5 g, in 10 ml organ baths containing carbogen-gassed Krebs-Henseleit nutrient solution thermostatically controlled at 37° C. and having the following composition: 119 mmol/l of NaCl; 2.5 mmol/l of CaCl2 ×2H2 O; 1.2 mmol/l of KH2 PO4; 10 mmol/l of glucose; 4.8 mmol/l of KCl; 1.4 mmol/l of MgSO4 ×7H2 O and 25 mmol/l of NaHCO3.
The contractions are recorded isometrically by Statham UC2 cells via bridged amplifiers (ifd Mulheim or DSM Aalen) and are digitised and evaluated by means of an A/D converter (System 570, Keithley Munich). The agonist dose/effect curves (DEC) are plotted hourly. With every DEC, 3 or 4 individual concentrations are applied to the baths at intervals of 4 minutes. The end of the DEC and subsequent wash-out cycles (16 times for in each case about 5 seconds/minute with the above nutrient solution) is followed by a 28-minute rest or incubation phase, during which the contractions as a rule reach the starting value again.
The level of the third DEC in the normal case is used as the reference parameter for evaluation of the test substance which is to be investigated in subsequent passes and is applied to the baths for the following DECs at the start of the incubation time at a dosage which increases each time. Each aortic ring is stimulated over the whole day with always the same agonist.
(§1) ______________________________________
Agonists and their standard concentrations (Application
volume per individual dose = 100 μl):
as §1
For calculation of the IC50 (concentration at which the substance under investigation causes 50% inhibition), the particular effect at the 3rd=submaximal agonist concentration is taken as the basis.

Assay [2] has as its target T1, angiotensin II receptor (Bos taurus, UniProt P25104).
T1 construct: partly purified membrane fractions of bovine AC with radioactive angiotensin II; from tissue; host or cells: bovine adrenal cortex, partly purified membrane fractions
T1 sequence (P25104 1-359): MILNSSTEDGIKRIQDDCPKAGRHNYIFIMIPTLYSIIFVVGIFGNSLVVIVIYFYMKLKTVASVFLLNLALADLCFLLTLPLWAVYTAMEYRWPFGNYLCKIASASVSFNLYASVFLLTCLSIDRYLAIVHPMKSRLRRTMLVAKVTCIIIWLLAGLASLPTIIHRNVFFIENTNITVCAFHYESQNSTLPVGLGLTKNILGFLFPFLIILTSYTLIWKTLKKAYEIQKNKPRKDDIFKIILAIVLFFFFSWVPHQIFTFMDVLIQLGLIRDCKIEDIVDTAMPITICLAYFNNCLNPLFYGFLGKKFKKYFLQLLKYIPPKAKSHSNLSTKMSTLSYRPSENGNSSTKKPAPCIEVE
The assay is described as follows: Interaction with the angiotensin II receptor on membrane fractions of the adrenal cortex. Conditions: bovine adrenal cortex membranes; 3H-angiotensin II (3-5 nM); 60 minutes at room temperature. Format: binding, cattle. The method, then: Adrenal cortices from cattle (AC), which are freshly removed and carefully freed from medulla of the capsule, are comminuted to a coarse membrane homogenate in sucrose solution (0.32M) with the aid of an Ultra-Turrax (Janke & Kunkel, Staufen i.B.), and the homogenate is partly purified to membrane fractions in two centrifugation steps.
The investigations on receptor bonding are carried out on partly purified membrane fractions of bovine AC with radioactive angiotensin II in an assay volume of 0.25 ml, which specifically contains the partly purified membranes (50-80 μg), 3H-angiotensin II (3-5 nM), test buffer solution (50 mM Tris, pH 7.2), 5 mM MgCl2 and the substances to be investigated. After an incubation time of 60 minutes at room temperature, the non-bonded radioactivity of the samples is separated off by means of a moistened glass fibre filter (Whatman GF/C) and, after the protein has been washed with ice-cold buffer solution (50 mM Tris/HCl, pH 7.4, 5% PEG 6000), the bonded radioactivity is measured by spectrophotometry in a scintillation cocktail. The raw data were analysed for Ki and IC50 values by computer programs (Ki : IC50 values corrected for the radioactivity used; IC50 values: concentration at which the substance under investigation causes 50% inhibition of the specific bonding of the radio ligand).

The test system of assay [3] is smooth muscle cells. The assay is described as follows: Inhibition of proliferation of smooth muscle cells (3H-thymidine incorporation). Conditions: 10^-6 M, smooth muscle cells from aortas of rats or pigs. Type of assay: cell-based. How it is done:
Smooth muscle cells obtained from the aortas of rats or pigs by the media explantate technique [R. Ross, J. Cell. Biol. 50, 172, 1971] are used to determine the antiproliferative action of the compounds.
The cells are sown in suitable culture dishes, as a rule 24-hole plates, and cultured for 2-3 days in medium 199 with 7.5% of FCS and 7.5% of NCS, 2 mM L-glutamine and 15 mM HEPES, pH 7.4, in 5% CO2 at 37° C. The cells are then synchronised for 2-3 days by withdrawal of the serum, and subsequently stimulated into growth with AII, serum or other factors. Test compounds are added at the same time. […]
In general terms: Incorporation of labelled thymidine or its analogues reports DNA synthesis.

Assay [4] relates to angiotensin II-infused rats. Put plainly: Blood pressure measurements on angiotensin II-infused rats. The note with it: angiotensin II-infused rats (0.3 μg/kg/minute), anaesthetised; dose 0.1 mg/kg p.o. Format: in vivo, Male Wistar rats. How it is done:
Male Wistar rats (Moellegaard, Copenhagen, Denmark) with a body weight of 300-350 g are anaesthetised with thiopental (100 mg/kg i.p.). After tracheotomy, a catheter for blood pressure measurement is inserted into the femoral artery and a catheter for angiotensin II infusion and a catheter for administration of the substance are inserted into the femoral veins. After administration of the ganglion blocker pentolinium (5 mg/kg i.v.), the angiotensin II infusion (0.3 μg/kg/minute) is started. As soon as the blood pressure values have reached a stable plateau, the test substances are administered either intravenously, or orally as a suspension or solution in 0.5% of tylose. The changes in blood pressure under the influence of the substance are shown as the mean values ±SEM in the table.

`CCCCc1nc2cccnc2n1Cc1ccc(S(=O)(=O)N2CCCCC2C(=O)O)cc1Cl` (racemic) [Example 2, rac-4-[{2-Butyl-imidazo[4,5-b]pyridin}-3-yl]methyl-3-chlorobenzenesulphonyl-N-(2-carboxy)piperidinide]: the IC50 in assay [1] came to 326 nM. Moreover, the Ki in assay [2] came to 1000 nM. Besides, 1 µM produced 40% inhibition in assay [3].

Consider `CCCCc1nc2cccnc2n1Cc1ccc(S(=O)(=O)N2CCC[C@H]2C(=O)O)cc1Cl` [Example 5], for which, in assay [1], the IC50 was 40 nM. The same compound gave a Ki in assay [2] of 550 nM. The compound further came in with an inhibition at 1 µM in assay [3] of 70%.

In the case of `COC(=O)[C@@H]1CCCN1S(=O)(=O)c1ccc(Cn2c(C3CC3)nc3c(C)ccnc32)c(Cl)c1` [Example 19], in assay [1], the IC50 stood at 6 nM.

For `CCc1nc2c(C)cc(C)nc2n1Cc1ccc(S(=O)(=O)N2CCC[C@H]2C(=O)OC)cc1Cl` [Example 20, S-4-[[2-Ethyl-imidazo[4,5-b]5,7-dimethyl-pyridin]-3-yl]methyl-3-chloro-benzenesulphonyl-N-(2-methoxy-carbonyl)pyrrolidinide], the IC50 in assay [1] was determined as 6 nM. Also, in assay [4], the “ΔP (change in blood pressure)” value was -48 mm Hg.

In the case of `COC(=O)[C@@H]1CCCN1S(=O)(=O)c1ccc(Cn2c(C3CC3)nc3c(C)cc(C)nc32)c(Cl)c1` [Example 31], the IC50 in assay [1] stood at 4 nM. In assay [4], the “ΔP (change in blood pressure)” value is -62 mm Hg.

Take `Cc1cc(C)c2nc(C3CC3)n(Cc3ccc(S(=O)(=O)N4CCC[C@H]4C(=O)O)cc3Cl)c2n1` [Example 39]: the IC50 in assay [1] was 3 nM. The “ΔP (change in blood pressure)” value in assay [4] is recorded as -32 mm Hg.

With `CCc1nc2c(C)cc(C)nc2n1Cc1ccc(S(=O)(=O)N2CCC[C@H]2C(=O)O)cc1Cl` [Example 41], the IC50 in assay [1] was 3 nM.

As usually defined, the IC50 is the midpoint of a concentration-inhibition curve. The term Ki denotes a dissociation constant, usually derived from enzyme kinetics or from competition with a known ligand. A high value points to a looser hold on the target. For orientation: inhibition means the drop in the measured response relative to a control, in per cent.

Values taken from patent publication US5364942A, “Sulphonylbenzyl-substituted imidazopyridines” (Bayer Aktiengesellschaft, priority 1992, dated 1994).
